Experiments:
human fibroblasts (HSF) [1] = assay: Wound healing assay (cell migration) in human fibroblasts; type: cell-based; conditions: 1 ng/ml
Description: (§1) The objective of the wound healing assay is the study of cell migration. It is based on observing the behavior of a confluent cell monolayer on which a hole or wound has been previously made. The cells at the border of the hole move towards the opening until new cell-cell contacts are established, thus closing the wound.
(§2) The basic steps involve creating the wound or cell free area on the cell monolayer, the capture of images periodically during the experiment and the comparison of all the images to determine the velocity of cell migration.
• 1. Cultivate the cells until confluence (100% approx.) in plates of 6 wells (HaCaT: 500,000 cells/6 well; HSF: 500,000 cells/6 well) • 2. Incubate at 37° C. and 5% of CO2 for 24 hours. • 3. […]
(§3) % migration=(time measured 0−time measured X/time measured 0)*100

[2] = test system: transcripts of the gene of the elastin; assay: Induction of elastin synthesis by quantitative PCR in fibroblasts; type: cell-based, human; conditions: control = value 1, dose dependent, 72 hours
Description: (§4) PCR in real time or quantitative PCR is a variation of standard PCR used for quantifying DNA or messenger RNA (mRNA) of a sample. Using specific sequence primers, it is possible to determine the number of copies or the relative quantity of a determined DNA or RNA sequence.
(§5) When PCR in real time is combined with a retro-transcription or RT reaction (RTPCR), the mRNA quantity of a sample may be determined by means of a relative quantification. Said quantification is termed relative if the relative quantity or ratio of mRNA of a specific gene is compared with respect to the mRNA quantity of a constitutive gene (endogenous control, GAPDH in this case) among different samples. This is what is termed as normalization of the specific gene expression or normalizing with respect to the different total concentration of RNA of the samples since if the quantity of endogenous control varies it is due to changes in the total RNA quantity used in the synthesis of cDNA, not to changes in its expression. For the quantification, the quantity of amplicon produced is measured in each cycle of PCR. The quantification of the product is produced by means of the addition of fluorophores which join to the amplicon in a quantitative manner such that the greater the product, the greater the fluorescence that will be emitted. […]

human fibroblasts (HSF) [3] = assay: MTT cell proliferation assay in human fibroblasts; type: cell-based; conditions: 72 hours
Description: (§6) This assay is based on metabolic reduction of bromide 3-(4,5-dimethylthiazol-2-yl)-2,5-diphenyltetrazolium (MTT) carried out by the mitochondrial succinate dehydrogenase enzyme in a blue colored compound (formazan), allowing the mitochondrial functionality of the treated cells to be determined. This method has been very widely used to measure cell survival and proliferation. The quantity of live cells is proportional to the quantity of formazan produced. This method was developed by Mosmann in 1983, modified in 1986 by Francois Denizot and Rita Lang. • 1. Using trypsin, separate the cells and re-suspend them in supplemented culture medium (10% of bovine fetal serum and antibiotic). • 2. Determine the number of cells required per well using a Neubauer camera (HaCaT: 5,000 cells/96 well, 30,000 cells/24 well; HSF: 4,000 cells/96 well, 30,000 cells/24 well. • 3. Incubate at 37° C. and 5% of CO2 for 24 hours to allow for the adherence thereof. • 4. Prepare the mixtures of free and liposomated factor at the indicated concentrations, remove the medium and add the mixtures. • 5. Incubate at 37° C. and 5% of CO2 for 72 hours. • 6. Add MTT (1.9 mg/ml) in PBS solution (25 μl total) over the medium • 7. Incubate for 3 hours at 37° C. to allow for the formation of formazan crystals. • 8. Then remove the supernatant and add 100 μl of DMSO. • 9. Incubate for 30 minutes at 37° C. to allow for the formazan crystals to dissolve • 10. The optical density reading (OD) is carried out in a spectrophotometer at a wavelength of 570 nm. • The viability percentage is obtained in the following manner: % viability—DO cells treated×100/DO control cells

[4] = test system: human keratinocytes (HaCaT); assay: Wound healing assay (cell migration) in human keratinocytes; type: cell-based; conditions: 1 ng/ml; for wound closed more quickly than in the control cells: at 24 hours of treatment; for wound closure: at 48 hours
Description: as §1, §2
• 1. Cultivate the cells until confluence (100% approx.) in plates of 6 wells (HaCaT: 500,000 cells/6 well; HSF: 500,000 cells/6 well) • 2. Incubate at 37° C. and 5% of CO2 for 24 hours. • 3. Scaling of the wounds (2 wounds per horizontal trajectory well using yellow sterile points (P200). They are dragged along the monolayer with an angle of inclination of 30 degrees (not perpendicular to the plate) and guided with a previously marked section. Mark three points for taking measurements. • 4. Leave to rest for 15 minutes before adding the treatment. • 5. Prepare the mixtures of free and liposomated factors at a concentration of 1 ng/ml, the medium is removed and add the mixtures. • 6. Incubate at 37° C. and 5% of CO2 for 72 hours. • 7. Take measurements at the times 0, 24, 48 and 72 hours.
The percentage of migration is obtained in the following manner:
as §3

TNFa transcripts = assay: Anti-inflammatory effect by quantitative PCR after LPS, TNFa transcripts; type: cell-based, human; conditions: cells with prior inflammation induced with 200 ng/ml LPS for three hours, dose dependent
Description: as §4, §5

[5] = test system: transcripts of the gene of the elastin; assay: Induction of elastin synthesis by quantitative PCR in keratinocytes; type: cell-based, human; conditions: control = value 1, dose dependent, 72 hours
Description: as §4, §5

[6] = test system: human keratinocytes (HaCaT); assay: MTT cell proliferation assay in human keratinocytes; type: cell-based; conditions: 72 hours
Description: as §6

IL6 transcripts = assay: Anti-inflammatory effect by quantitative PCR after LPS, IL6 transcripts; type: cell-based, human; conditions: cells with prior inflammation induced with 200 ng/ml LPS for three hours, dose dependent
Description: as §4, §5

[7] = concentrations greater than 1 ng/ml
[8] = low concentrations 0.01 ng/ml-0.5 ng/ml, untreated cells = 100% proliferation

| Molecule | repair velocity of the wound versus control cells (human fibroblasts (HSF) [1]) | synthesis of elastin (elastin gene transcripts) with respect to the control cells [2] | cell proliferation (untreated cells = 100%) (human fibroblasts (HSF) [3]; concentration not given) | cell proliferation (untreated cells = 100%) (human fibroblasts (HSF) [3]; [7]) | wound closed more quickly than in the control cells [4] | wound closure [4] | transcript levels of TNFa (TNFa transcripts) | synthesis of elastin (elastin gene transcripts) with respect to the control cells [5] | cell proliferation above the untreated cells [6, 7] | transcript levels of IL6 (IL6 transcripts) | repair velocity of the wound, more quickly with respect to the control (human fibroblasts (HSF) [1]) | cell proliferation above the untreated cells (human fibroblasts (HSF) [3]; [7]) | cell proliferation above the untreated cells (human fibroblasts (HSF) [3]; [8]) | cell proliferation above the untreated cells [6, 8] | cell proliferation above the untreated cells (human fibroblasts (HSF) [3]; concentration of 0.5 ng/ml) |
| --- | --- | --- | --- | --- | --- | --- | --- | --- | --- | --- | --- | --- | --- | --- | --- |
| Nicotiana benthamiana Sh-Polypeptide-7 [HGH free factor] | hardly any difference | increase in the synthesis of elastin | around 100% | around 100% | 40% | completely closed | decrease | increase in the synthesis of elastin | around 20% | decrease | – | – | – | – | – |
| Nicotiana benthamiana Sh-Polypeptide-45 [GM-CSF free factor] | – | increase in the synthesis of elastin | – | – | 13% | completely closed | decrease | increase in the synthesis of elastin | around 20% | decrease | 20% | around 60% | 100% | 20% | – |
| follistatin (protein, UniProt P19883 30-344, looked up, growth factor follistatin analyzed in free form) Follistatin: GNCWLRQAKNGRCQVLYKTELSKEECCSTGRLSTSWTEEDVNDNTLFKWMIFNGGAPNCIPCKETCENVDCGPGKKCRMNKKNKPRCVCAPDCSNITWKGPVCGLDGKTYRNECALLKARCKEQPELEVQYQGRCKKTCRDVFCPGSSTCVVDQTNNAYCVTCNRICPEPASSEQYLCGNDGVTYSSACHLRKATCLLGRSIGLAYEGKCIKAKSCEDIQCTGGKKCLWDFKVGRGRCSLCDELCPDSKSDEPVCASDNATYASECAMKEAACSSGVLLEVKHSGSCNSISEDTEEEEEDEDQDYSFPISSILEW | – | – | – | – | – | – | – | – | – | – | – | maintains cell proliferation around the control | – | – | 40% |
